Experimental findings from ChEMBL document CHEMBL1122538, “Functional group contributions to drug-receptor interactions” (J Med Chem, 1984) are described below.

The nature of the series: Binding energy by using the equation deltaG obsd = -RT ln KD. The format is ADME.
For the compound `OC[C@H]1O[C@@H](n2cnc3c2N=CNC[C@H]3O)[C@H](O)[C@@H]1O` [COFORMYCIN], the Binding energy stood at 15 kcal/mol.

`NC(CO)Cc1ccccc1` (stereo not given): the Binding energy came out at 7.1 kcal/mol.

Take `CCCCC1C(=O)N(c2ccccc2)N(c2ccccc2)C1=O` [PHENYLBUTAZONE]: the Binding energy was found to be 7.3 kcal/mol.

The compound `COc1ccc2cc([C@H](C)C(=O)O)ccc2c1` [NAPROXEN] had a Binding energy of 8.5 kcal/mol.

Compound `COc1ccc(CN(CCN(C)C)c2ccccn2)cc1` [PYRILAMINE] showed a Binding energy of 12.7 kcal/mol.

Take `O=C(CCCN1CCC(n2c(O)nc3ccccc32)CC1)c1ccc(F)cc1` [BENPERIDOL]: the Binding energy was found to be 12.2 kcal/mol.

For the compound `CCN` [ETHYLAMINE], the Binding energy came out at 2.2 kcal/mol.

The compound `O=C(CCCN1CCC2(CC1)C(=O)NCN2c1ccccc1)c1ccc(F)cc1` [SPIPERONE] displayed a Binding energy of 14 kcal/mol.

For `CC(=O)CC(c1ccccc1)c1c(O)c2ccccc2oc1=O` (stereo not given) [WARFARIN], the Binding energy came out at 6.9 kcal/mol.

With `CC(=O)OCC[N+](C)(C)C` [ACETYLCHOLINE], the Binding energy was 11.1 kcal/mol.

The compound `C=C(C)[C@@H]1[C@H]2OC(=O)[C@@H]1[C@]1(O)[C@H]3O[C@H]3[C@]3(CO3)[C@]1(C)[C@@H]2O` showed a Binding energy of 8.8 kcal/mol.

Turning to `Cl[C@H]1[C@H](Cl)[C@@H](Cl)[C@@H](Cl)[C@H](Cl)[C@H]1Cl` [LINDANE], the Binding energy is 6.1 kcal/mol.

In turn, `O=C(O)CC(CC(=O)CP(=O)(O)O)C(=O)O` (stereo not given) yielded a Binding energy of 10.9 kcal/mol.

For the compound `CC(Cc1ccccc1)NCCC(c1ccccc1)c1ccccc1` (stereo not given) [PRENYLAMINE], the Binding energy is 8.2 kcal/mol.

Compound `C[C@]12CCC(=O)C=C1CC[C@@H]1[C@@H]2[C@@H](O)C[C@]2(C=O)[C@@H](C(=O)CO)CC[C@@H]12` [ALDOSTERONE] showed a Binding energy of 12.7 kcal/mol.

In turn, `CN1[C@@H]2CC[C@H]1C[C@@H](OC(=O)C(CO)c1ccccc1)C2` (stereo not given in full) [ATROPINE] registered a Binding energy of 12.8 kcal/mol.

Turning to `Cc1nc(N)nc(N)c1-c1ccc(Cl)c(Cl)c1` [METOPRINE], the Binding energy was 12.3 kcal/mol.

`CNCCC(Oc1ccccc1OC)c1ccccc1` (stereo not given) [NISOXETINE] displayed a Binding energy of 11.5 kcal/mol.

For FLUPENTIXOL, the Binding energy was determined as 11.5 kcal/mol.

As to `COc1cccc(OC)c1OCCNCC1COc2ccccc2O1` (stereo not given), the Binding energy was found to be 12.9 kcal/mol.

With `NCCc1ccccc1` [PHENETHYLAMINE], the Binding energy worked out at 5.5 kcal/mol.

In the case of `NCc1cc(=O)[nH]o1` [MUSCIMOL], the Binding energy came out at 11.9 kcal/mol.

In the case of `O=C(c1ccc(F)cc1)C1CCN(CCn2c(=O)[nH]c3ccccc3c2=O)CC1` [KETANSERIN], the Binding energy was determined as 12.8 kcal/mol.

BIBROCATHOL showed a Binding energy of 10.7 kcal/mol.

The compound `CCC1(c2ccccc2)C(=O)NC(=O)N(C)C1=O` (stereo not given) [MEPHOBARBITAL] displayed a Binding energy of 7.3 kcal/mol.

Compound `O=C1NCN(c2ccccc2)C12CCN(CCCC(c1ccc(F)cc1)c1ccc(F)cc1)CC2` [FLUSPIRILENE] registered a Binding energy of 11.6 kcal/mol.

As for `O=C(O)C(=O)O` [OXALIC ACID], the Binding energy amounted to 7.8 kcal/mol.

For `O=C1NC(=O)C(c2ccccc2)(c2ccccc2)N1` [PHENYTOIN], the Binding energy is 11.2 kcal/mol.

`C[C@H]1[C@H]2C(=O)c3ccc(O)cc3[C@]1(C)CCN2CC1CC1` [KETAZOCINE] registered a Binding energy of 11.4 kcal/mol.

In turn, `NC[C@H](O)c1ccc(O)c(O)c1` [NOREPINEPHRINE] displayed a Binding energy of 12.1 kcal/mol.

In turn, `CCC1(CC=C2CCCCC2)C(=O)NC(=O)NC1=O` came in with a Binding energy of 8.4 kcal/mol.

Turning to `CSc1ccc2c(c1)N(CCC1CCCCN1C)c1ccccc1S2` (stereo not given) [THIORIDAZINE], the Binding energy was determined as 11 kcal/mol.

Compound `CC(Oc1c(Cl)cccc1Cl)C1=NCCN1` (stereo not given) [LOFEXIDINE] returned a Binding energy of 11.8 kcal/mol.

The compound `O=C(O)CCc1ccccc1` [PHENYL PROPIONIC ACID] came in with a Binding energy of 5.5 kcal/mol.

The compound `CC12CCC(CC1=O)C2(C)C` (stereo not given) [CAMPHOR] showed a Binding energy of 11.4 kcal/mol.

Turning to `CC(=O)CC(=O)C(=O)O`, the Binding energy is 9.1 kcal/mol.

With `CNC(=O)Oc1cccc2c1OC(C)(C)C2` [CARBOFURAN], the Binding energy came out at 4.6 kcal/mol.

`N/C=C(\OP(=O)(O)O)C(=O)O` displayed a Binding energy of 10.5 kcal/mol.

The compound `Cc1ccc(N(CC2=NCCN2)c2cccc(O)c2)cc1` [PHENTOLAMINE] registered a Binding energy of 11.9 kcal/mol.

As to `O=P(O)(O)O` [PHOSPHORIC ACID], the Binding energy came to 7.7 kcal/mol.

As to `CN(C)CCCN1c2ccccc2Sc2ccc(Cl)cc21` [CHLORPROMAZINE], the Binding energy came out at 12.3 kcal/mol.

Consider `O=C1CCC(c2ccccc2)(C2CCN(Cc3ccccc3)CC2)C(=O)N1` (stereo not given) [BENZETIMIDE], for which the Binding energy turned out to be 12 kcal/mol.

In the case of `O=C(O)c1ccc(C(=O)O)c(C(=O)O)c1`, the Binding energy was 5.2 kcal/mol.

Consider `O=C(O)Cc1cc(I)c(Oc2ccc(O)c(I)c2)c(I)c1` [TIRATRICOL], for which the Binding energy is 9.3 kcal/mol.

Turning to `NC(=O)C1(N2CCCCC2)CCN(CCCC(=O)c2ccc(F)cc2)CC1` [PIPAMPERONE], the Binding energy came out at 12.4 kcal/mol.

In the case of `O=C(CCCN1CCC(O)(c2ccc(Cl)cc2)CC1)c1ccc(F)cc1` [HALOPERIDOL], the Binding energy is 12.3 kcal/mol.

Take `CCC1(CC)C(=O)NC(=O)N(C)C1=O` [METHARBITAL]: the Binding energy was 6.8 kcal/mol.

`N=C(N)NC(=O)Cc1c(Cl)cccc1Cl` [GUANFACINE] registered a Binding energy of 11.9 kcal/mol.

The compound `CN1CCc2cccc3c2[C@H]1Cc1ccc(O)c(O)c1-3` [APOMORPHINE] gave a Binding energy of 11.9 kcal/mol.

`O=P(O)(O)OC[C@H]1O[C@](O)(CO)[C@@H](O)[C@@H]1O` came in with a Binding energy of 5.7 kcal/mol.

Compound `CN1[C@@H]2C[C@@H](OC(=O)[C@H](CO)c3ccccc3)C[C@H]1[C@@H]1O[C@@H]12` [SCOPOLAMINE] displayed a Binding energy of 12.9 kcal/mol.

With `CC(C(=O)O)c1ccc(-c2ccccc2)c(F)c1` (stereo not given) [FLURBIPROFEN], the Binding energy came out at 9.1 kcal/mol.

Take `CN1CCC(=C2c3ccccc3CCc3sccc32)CC1` [PIZOTYLINE]: the Binding energy is 13 kcal/mol.

`O=P(O)(O)/C=C/CCO` gave a Binding energy of 4.1 kcal/mol.

Turning to `CO[C@]12CC[C@@]3(C[C@@H]1[C@](C)(O)C(C)(C)C)[C@H]1Cc4ccc(O)c5c4[C@@]3(CCN1CC1CC1)[C@H]2O5` [BUPRENORPHINE], the Binding energy is 13.4 kcal/mol.

Regarding `CC(N)Cc1ccccc1` (stereo not given) [AMPHETAMINE], the Binding energy turned out to be 6.8 kcal/mol.

`CO/C=C/C(N)C(=O)O` (stereo not given): the Binding energy turned out to be 5.9 kcal/mol.

Take `C[C@]12C[C@H](O)[C@H]3[C@@H](CCC4=CC(=O)CC[C@@]43C)[C@@H]1CC[C@@H]2C(=O)CO` [CORTICOSTERONE]: the Binding energy stood at 11.6 kcal/mol.

Compound `Nc1ccn([C@@H]2O[C@H](COP(=O)(O)O)[C@@H](O)[C@H]2O)c(=O)n1` had a Binding energy of 5.9 kcal/mol.

Take `CCC(=O)C1(c2cccc(O)c2)CCN(C)CC1` [KETOBEMIDONE]: the Binding energy was 10.8 kcal/mol.
